{"source": "patent US20180305742A1", "about": "“USE OF ESTROGENIC COMPOUNDS TO […] BACTERIAL COMPOSITION OF VAGINAL COMMUNITIES” (University of Idaho, priority 2017, published 2018)", "origin": "cited, not measured here", "test_system": "estrogen receptor"}
{"smiles": "C[C@]12CC[C@@H]3c4ccc(O)cc4CC[C@H]3[C@@H]1C[C@@H](O)[C@@H]2O", "note": "[Estriol, estriol]", "values": [{"measurement": "potency relative to estradiol", "setting": "as potent as estradiol", "value": 8, "unit": "%"}, {"measurement": "potency relative to estrone", "setting": "as potent as estrone", "value": 14, "unit": "%"}]}
